# Measured values published in paper PMC7311409, “Crystal structures of SAMHD1 inhibitor complexes reveal the mechanism of water-mediated dNTP hydrolysis” (Nature Communications, 2020).
# Like-named read-outs stand apart in the source and are kept apart here.
# How the values were obtained:
# SAMHD1 [1] = target: T1, SAMHD1 (Homo sapiens, UniProt Q9Y3Z3); set-up: wt-SAMHD1(1-626); MDCC-PBP phosphate sensor coupled SAMHD1-Ppx1 assay, competitive inhibition of TTP hydrolysis, global fit; settings: GTP-activated, substrate TTP 0.1-1 mM, pH 8.0, 25 °C; inhibitor
# Method: To obtain quantitative kinetic parameters for substrate hydrolysis (KM and kcat) and for inhibition by dNMPNPP analogues (Ki) a coupled assay was employed utilising the biosensor MDCC-PBP[90],[91] to measure phosphate release from combined SAMHD1 triphosphohydrolase and S. cerevisiae Ppx1 exopolyphosphatase activity. In a typical experiment, solutions containing wt-SAMHD1(1-626), Ppx1, MDCC-PBP and GTP were incubated for 5 min in assay buffer (20 mM Tris pH 8.0, 150 mM NaCl, 5 mM MgCl2 and 2 mM TCEP) at 25 °C before the reaction was initiated by the addition of nucleotides and nucleotide analogues. The final concentrations were 0.2 µM SAMHD1, 0.01 µM Ppx1, 40 µM MDCC-PBP, 0.2 mM GTP and varying concentrations of dNTP substrates and analogues. The fluorescence intensity was recorded at 430 nm excitation and 465 nm emission over a period of 10–30 min in a Clariostar multiwell plate reader (BMG Labtech). […] Apparent dissociation constants for substrate binding (KM) and catalytic constants (kcat) were then determined by non-linear least-squares fitting using a hyperbolic function in the software package Prism 7 (Graphpad). […] The fitting was performed with a fixed value of KM for GTP-activated TTP hydrolysis, determined previously[35] and only kcat and Ki were allowed to vary. […]
# Target sequence in this assay (Q9Y3Z3 whole entry): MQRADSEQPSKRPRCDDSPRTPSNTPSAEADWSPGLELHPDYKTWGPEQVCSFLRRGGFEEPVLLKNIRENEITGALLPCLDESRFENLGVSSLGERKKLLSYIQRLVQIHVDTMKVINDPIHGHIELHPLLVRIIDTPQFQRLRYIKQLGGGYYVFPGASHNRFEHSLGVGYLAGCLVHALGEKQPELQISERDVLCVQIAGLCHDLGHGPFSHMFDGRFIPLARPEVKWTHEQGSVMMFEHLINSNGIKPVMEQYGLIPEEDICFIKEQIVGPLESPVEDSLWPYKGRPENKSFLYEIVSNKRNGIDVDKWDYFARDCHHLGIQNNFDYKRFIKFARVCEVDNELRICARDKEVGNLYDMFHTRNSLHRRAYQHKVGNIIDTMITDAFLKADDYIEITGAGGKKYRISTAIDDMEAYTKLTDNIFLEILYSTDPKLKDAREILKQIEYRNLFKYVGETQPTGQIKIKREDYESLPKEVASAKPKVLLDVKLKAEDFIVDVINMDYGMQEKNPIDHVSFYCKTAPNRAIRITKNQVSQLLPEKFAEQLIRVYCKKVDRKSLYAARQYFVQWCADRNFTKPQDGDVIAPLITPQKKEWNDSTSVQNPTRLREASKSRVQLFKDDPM
# SAMHD1 [2] = target: T1, SAMHD1; experiment: X-ray co-crystal structure; competitive inhibition in coupled enzyme assay; assay type: binding; set-up: residues 109-626 (crystal)
# Target sequence in this assay (Q9Y3Z3 109-626): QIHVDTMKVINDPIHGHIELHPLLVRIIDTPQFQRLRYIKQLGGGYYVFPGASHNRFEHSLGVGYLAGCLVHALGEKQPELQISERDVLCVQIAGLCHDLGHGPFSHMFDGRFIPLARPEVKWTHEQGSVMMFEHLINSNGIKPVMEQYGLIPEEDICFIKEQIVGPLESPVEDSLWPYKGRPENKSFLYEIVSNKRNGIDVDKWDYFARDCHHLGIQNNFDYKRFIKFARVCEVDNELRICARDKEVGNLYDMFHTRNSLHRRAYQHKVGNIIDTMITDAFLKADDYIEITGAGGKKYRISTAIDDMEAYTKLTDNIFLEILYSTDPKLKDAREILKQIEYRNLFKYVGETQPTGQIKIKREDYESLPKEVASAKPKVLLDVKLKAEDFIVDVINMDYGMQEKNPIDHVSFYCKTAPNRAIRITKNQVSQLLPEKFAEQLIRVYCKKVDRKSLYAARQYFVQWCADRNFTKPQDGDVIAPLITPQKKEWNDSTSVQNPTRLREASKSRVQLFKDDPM
# SAMHD1 [3] = target: T2, SAMHD1 (Homo sapiens, UniProt Q9Y3Z3, D137N); experiment: X-ray co-crystal structure; activation of dNTP hydrolysis; assay type: binding
# T2 construct: residues 109-626
# SAMHD1 [4] = target: T1, SAMHD1; experiment: MDCC-PBP/Ppx1 coupled triphosphohydrolase assay, competitive inhibition of TTP hydrolysis, global fit; SEC-MALLS tetramerisation; assay type: biochemical; set-up: wt-SAMHD1(1-626)
# Target sequence in this assay (Q9Y3Z3 whole entry): as the sequence (Q9Y3Z3 whole entry) above
# SAMHD1 [5] = target: T2, SAMHD1; experiment: X-ray co-crystal structure; assay type: binding
# T2 sequence (Q9Y3Z3 109-626 D137N): as the sequence (Q9Y3Z3 109-626) above, with D29N counted along it
Structure (SMILES),Ki (SAMHD1 [1]),Ki (SAMHD1 [4]),other results
Cc1cn([C@H]2C[C@H](O)[C@@H](COP(=O)(O)NP(=O)(O)OP(=O)(O)O)O2)c(=O)[nH]c1=O [TMPNPP],370 ± 20 nM,,"X-ray co-crystal structure (SAMHD1 [2]): (ii) GTP (AL1), dATP (AL2) and TMPNPP (active site)"
O=c1[nH]c(=O)c2ncn([C@@H]3O[C@H](COP(=O)(O)OP(=O)(O)OP(=O)(O)O)[C@@H](O)[C@H]3O)c2[nH]1 [XTP],,,X-ray co-crystal structure; activation of dNTP hydrolysis (SAMHD1 [3]): D137N-SAMHD1 is activated by xanthosine-5′-triphosphate (XTP) rather than GTP through AL1-binding
Nc1ncnc2c1ncn2[C@H]1C[C@H](O)[C@@H](COP(=O)(O)NP(=O)(O)OP(=O)(O)O)O1 [dAMPNPP],,780 nM,
Nc1ccn([C@H]2C[C@H](O)[C@@H](COP(=O)(O)NP(=O)(O)OP(=O)(O)O)O2)c(=O)n1 [dCMPNPP],73 ± 3 nM,,
Nc1nc2c(ncn2[C@H]2C[C@H](O)[C@@H](COP(=O)(O)NP(=O)(O)OP(=O)(O)O)O2)c(=O)[nH]1 [dGMPNPP],,52 nM,X-ray co-crystal structure (SAMHD1 [5]): (ii) XTP (AL1) and dGMPNPP (AL2 and active site)
